According to patent publication US20090075898A1, “Complement C3A Derived Peptides and Uses Thereof” (Yeda Research and Development Co. Ltd. at the Weizmann …, priority 2005, published 2009):
Square brackets hold non-standard residues; d marks the D form. Ends that are not written are not given here.

How the values were obtained:
RBL-2H3 cells = details: for Inhibition of IgE-mediated β-hexosaminidase release from RBL-2H3 cells: peptides 5 min prior to suboptimal (5 ng/ml) antigen dose; for Inhibition of IgE-mediated β-hexoseaminidase secretion from RBL-2H3 (FIG. 1B): 250 μg of peptide
[1] = test system: ovalbumin-sensitized asthmatic mice; assay: Murine asthma model, cell distribution in broncho alveolar lavage; assay type: in vivo, mouse
Protocol: (§1) Inhibitory effect of the peptides on pulmonary functions. Mice (Balb/c, female, 8 weeks old) were first sensitized by ip injection of the antigen (Ag) ovalbumin. Thereafter, the mice were challenged 4 times by aerosol inhalation of the same Ag dispersed by nebulizer in a plexiglass chamber for about 20 min at one-week intervals. On day 28, the mice were first treated with an aerosol of the tested peptides dissolved in 0.1 M NaHCO3 and dispersed as above. As a result, the aerosol was inhaled by the animals for about 10 to 20 minutes. After inhalation, the animals were immediately challenged by inhalation (as above) of the sensitizing antigen (5% OVA in PBS) for 20 min. At the end of this treatment, the mice were immediately tested for pulmonary functions in conscious, freely moving state using plethysmography.
(§2) The degree of bronchial constriction was monitored by the enhanced pause and its relation to airway resistance, impedance and intrapleural pressure in the mouse. Bronchoalveolar lavage (BAL) samples were obtained from these mice by cannulating the trachea, injecting 0.8 ml ice-cold saline (×2) and subsequently aspirating the BAL fluid. Following these tests, mice were sacrificed using general anesthesia with brevital (1 mg/ml). Their chests wall were opened, blood withdrawn and lungs were perfused with cold PBS and examined for cytology and histology.
Table 3 provides results of analysis of the cells present in bronchi alveolar lavage (BAL) of mice treated by the same protocols as those subjected to analysis of lung function.

Dok-1 = Dok-1 phosphorylation in RBL-2H3 cells; assay type: cell-based, rat
Protocol: (§3) The inhibitory action of the peptide C3a31 on the FcεRI coupling cascade was also investigated using the rat mucosal-type RBL-2H3 line. Results of these experiments have shown that peptide C3a31 inhibited the phosphorylation of the protein tyrosine kinase Lyn and of the FcεRI β-chain. The inhibition on Lyn phosphorylation was observed after 1 min, and that on PAG phosphorylation (PAG has an important role in the regulation of src family kinases) after 3 min. However, C3a31 was also shown to enhance Lyn phosphorylation after 3 min. In addition, C3a31 inhibited Dok-1 phosphorylation after 5 min, but had no effect after 8 min.

FcεRI β chain = assay: Phosphorylation of FcεRI β chain in RBL-2H3 cells, Western blot; assay type: cell-based, rat; details: cells stimulated by antigen in the presence of peptide
Protocol: (§4) Immunoprecipitation and Western blot. Mast cells were seeded in 10 cm Petri dishes (7×10^6 cells/dish) and saturated with A2IgE at 37° C. in DMEM overnight. After washing they were treated with peptides for 5 min and FcεRI was clustered by incubating with 5 ng/ml DNP11-BSA at 37° C. for 2 min. The reaction was terminated by 500 μl lysis buffer (1% Triton X-100, 50 mM HEPES, 100 mM NaF, 10 mM EDTA, 2 mM sodium orthovanadate, 10% glycerol, 10 mM sodium pyrophosphate, protease inhibitor cocktail 1:200, pH 7.4) per dish. The cells were scraped and the protein content of the post nuclear supernatants was adjusted to equal values using the Bradford-assay prior to precipitation by PT-66 phosphotyrosine specific antibody coated beads (10 μl beads per sample). The proteins were eluted by sample buffer containing 2-mercaptoethanol and were separated by SDS-PAGE, electrotransferred onto a nitrocellulose membrane and developed using the indicated antibodies and detected by ECL.
(§5) These are known to include phosphorylation by the src-family PTK Lyn of the ITAMs of the FcεRI β and γ subunits.
(§6) The inhibitory action of the peptide C3a31 on the FcεRI coupling cascade was also investigated using the rat mucosal-type RBL-2H3 line.

PAG = PAG phosphorylation in RBL-2H3 cells; assay type: cell-based, rat
Protocol: as §3

PLCγ-2 = PLCγ-2 phosphorylation in RBL-2H3 cells; assay type: cell-based, rat
[2] = test system: passive systemic anaphylaxis in mice; assay: Passive systemic anaphylaxis, blood histamine; assay type: in vivo, mouse; details: peptide solution onto the nostrils before DNP-HSA antigen
Protocol: Passive Systemic Anaphylaxis. Mice (Balb/c) were anesthetized with 300-400 μl of avertin and injected with 3 μg of the IgE class DNP-specific monoclonal antibody (SPE-7, Sigma) in 200 μl PBS by retroorbital injection (or tail vein). After 24 hours, mice were anesthetized with 300-400 μl of avertin and exposed to ca. 100 μl of the indicated peptide (inhibitory, SEQ ID NO:11, a control reversed peptide of SEQ ID NO:35 or peptide GAKDGNEYI-COOH of SEQ ID NO:36) solution in PBS positioned onto the nostrils. This was followed by injection of the antigen (DNP-derivatized human serum albumin, HSA, 100 μg in 200 μl of PBS) or PBS only, by retroorbital injection (or tail vein). After 1.5 minutes, mice were sacrificed by cervical dislocation and cardiac puncture performed. Heparin-rinsed syringes were now used for aspiration. Blood samples were spun at 4 degrees for 10 minutes at 8000 rpm in tabletop. Histamine was assayed by the Immunotech protocol for competitive ALP assay.
The effect of C3a derived peptides on passive systemic anaphylaxis in mice was examined. […] The reverse peptide denoted C3a55 amide was ineffective (FIG. 5). A control group was treated with a non-relevant peptide having the amino acid sequence GAKDGNEYI-COOH of SEQ ID NO:36 prior to the injection of the antigen DNP-HSA.

[3] = test system: ovalbumin-sensitized asthmatic mice; assay: Murine asthma model, lung function by plethysmography; assay type: in vivo, mouse; details: peptide aerosol prior to final ovalbumin challenge
Protocol: as §1
as §2, with “histology. […]” for “histology.”

Lyn = assay: Phosphorylation of Lyn in RBL-2H3 cells, Western blot; assay type: cell-based, rat; details: for Phosphorylation of Lyn: cells stimulated by antigen in the presence of peptide
Protocol: as §4, with “After washing they were treated with peptides for 5 min and FcεRI was clustered by incubating with 5 ng/ml DNP11-BSA at 37° C. for 2 min.” left out
as §5, §6

[4] = test system: bone marrow derived mast cells (BMMC); assay: Secretory response (β-hexosaminidase release) of bone marrow derived mast cells; assay type: cell-based, mouse
Protocol: Cells. Bone marrow derived mast cells (BMMC) were prepared from Balb/c mice as described by Nagao et al. (Science 212: 333-335, 1981). After 3 weeks, an approximately 95% pure mast cell population was obtained, showing high expression of FcεRI and stem cell factor receptor (c-kit), as measured by flow cytometry.
Secretory response of mast cells.
Similar experiments were carried out using bone-marrow derived mast cells (BMMC). […] The control peptide of the sequence DVSNYITR had no effect on either system.

## DSSNYIR [C3a11]
RBL-2H3 cells
  Inhibition of IgE-mediated β-hexosaminidase release from RBL-2H3 cells: shown to inhibit

## Ser-Asp-Ser-Ser-Asn-Tyr-Ile-Thr-Arg-NH2 (SDSSNYITR-NH2) [C3a31]
[1]; OVA + peptide aerosol
  Eosinophils in BAL: 4%
  Lymphocutes in BAL: 81%
  Macrophages in BAL: 1%
  Mast Cells in BAL: 4%
  Neutrophils in BAL: 13%
[1]; peptide aerosol treatment
  Type of cells detected in the BAL: markedly affected
Dok-1; after 5 min
  Dok-1 phosphorylation after 5 min: inhibited
Dok-1; after 8 min
  Dok-1 phosphorylation after 8 min: had no effect
FcεRI β chain
  Phosphorylation of the FcεRI β chain: inhibited
PAG
  PAG phosphorylation after 3 min: inhibition
PLCγ-2
  Phosphorylation of PLCγ-2: inhibited
RBL-2H3 cells
  Inhibition of IgE-mediated β-hexoseaminidase secretion from RBL-2H3 (FIG. 1B): found to inhibit
[2]
  Symptoms of passive systemic anaphylaxis, histamine levels in mice blood: found to reduce
[3]
  Antigen-induced symptoms (lung airway resistance) in asthma model: effective in reducing
Lyn; after 1 min
  Lyn phosphorylation after 1 min: inhibition
Lyn; after 3 min
  Lyn phosphorylation after 3 min: enhance
Lyn
  Phosphorylation of Lyn: inhibited

## CCNYG (derived from human sequence) [C3a13]
RBL-2H3 cells
  Inhibition of IgE-mediated β-hexosaminidase release from RBL-2H3 cells: shown to inhibit

## RTIYNSSDS (RTIYNSSDS-NH2) [C3a55, reference compound]
[2]
  Symptoms of passive systemic anaphylaxis, histamine levels in mice blood: ineffective

## DVSNYITR [Control peptide, reference compound]
[4]
  Inhibition of IgE-mediated secretory response of BMMC: had no effect
[4]; suboptimal antigen-dose
  Inhibitory effect (IC50) on the IgE-mediated degranulation of BMMC: No effect
RBL-2H3 cells
  Inhibition of IgE-mediated β-hexosaminidase release from RBL-2H3 cells: had no effect
RBL-2H3 cells; suboptimal antigen-dose
  Inhibitory effect (IC50) on the IgE-mediated degranulation of RBL-2H3: No effect
Lyn
  Phosphorylation of Lyn: had no effect

## D-Ala-D-Ala-Asp-Ser-Ser-Asn-Tyr-Ile-Thr-Arg-NH2 ([dA][dA]DSSNYITR-NH2; N-terminus assumed; SMILES CC[C@H](C)[C@H](NC(=O)[C@H](Cc1ccc(O)cc1)NC(=O)[C@H](CC(N)=O)NC(=O)[C@H](CO)NC(=O)[C@H](CO)NC(=O)[C@H](CC(=O)O)NC(=O)[C@@H](C)NC(=O)[C@@H](C)N)C(=O)N[C@H](C(=O)N[C@@H](CCCNC(=N)N)C(N)=O)[C@@H](C)O) [C3a32]
RBL-2H3 cells
  Inhibition of IgE-mediated β-hexoseaminidase secretion from RBL-2H3 (FIG. 1B): found to inhibit
